Measurements: PMC10141620 (Viruses, 2023)

What was measured:
[1] = system: NL4-3ΔEnv-NanoLuc/SARS-CoV-2 (USA-WA1/2020) pseudovirus; assay: microbe, parasite or virus in culture; type: cell-based; conditions: Pseudovirus
in vitro [2] = conditions: human
in vitro [3] = conditions: human; remark: listed apart in the source
SARS-CoV-1 Urbani = assay: microbe, parasite or virus in culture; type: cell-based; conditions: Severe acute respiratory syndrome coronavirus, Calu-3, read-out: IC50, SARS-CoV-1 Urbani
in vitro [4] = conditions: human; remark: listed apart in the source
MERS-CoV, EMC/2012 = assay: microbe, parasite or virus in culture; type: cell-based; conditions: Middle East respiratory syndrome-related coronavirus, Calu-3, read-out: IC50, MERS-CoV

COc1cc(/C=c2/sc3nc4ccccc4n3c2=O)cc(I)c1OCC(=O)O [NBCoV72]
IC50 ([1]; 293T/ACE2): > 10 µM
IC50 ([1]; A549-ACE2): > 10 µM
CC50 (in vitro [2]): > 50 µM
CC50 (in vitro [3]): > 50 µM

O=C(O)c1ccc(-c2ccc(/C=c3/sc4nc5ccccc5n4c3=O)o2)cc1 [NBCoV73]
IC50 ([1]; 293T/ACE2): > 10 µM
IC50 ([1]; A549-ACE2): > 10 µM
CC50 (in vitro [2]): > 50 µM
CC50 (in vitro [3]): > 50 µM

O=C(O)c1ccc(Cl)c(-c2ccc(/C=c3/sc4nc5ccccc5n4c3=O)o2)c1 [NBCoV74]
IC50 ([1]; 293T/ACE2): > 10 µM
IC50 ([1]; A549-ACE2): > 10 µM
CC50 (in vitro [2]): > 50 µM
CC50 (in vitro [3]): > 50 µM

O=C(O)c1ccc(-c2ccc(/C=c3/sc4nc5ccccc5n4c3=O)o2)cc1Cl [NBCoV75]
IC50 ([1]; 293T/ACE2): 5.2 ± 0.6 µM
IC50 ([1]; A549-ACE2): 3.3 ± 0.7 µM
CC50 (in vitro [2]): > 50 µM
CC50 (in vitro [3]): > 50 µM

O=C(O)c1cc(C(=O)O)cc(-c2ccc(/C=c3/sc4nc5ccccc5n4c3=O)o2)c1 [NBCoV76]
IC50 ([1]; 293T/ACE2): > 10 µM
IC50 ([1]; A549-ACE2): > 10 µM
CC50 (in vitro [2]): > 50 µM
CC50 (in vitro [3]): > 50 µM

COc1cc(/C=c2/sc3nc4ccccc4n3c2=O)ccc1OCc1cccc(C(=O)O)c1 [NBCoV77]
IC50 ([1]; 293T/ACE2): > 10 µM
IC50 ([1]; A549-ACE2): > 10 µM
CC50 (in vitro [2]): > 50 µM
CC50 (in vitro [3]): > 50 µM

Cc1cc2nc3s/c(=C/c4ccc(-c5ccc(Cl)cc5)o4)c(=O)n3c2cc1C [NBCoV78]
IC50 ([1]; 293T/ACE2): > 10 µM
IC50 ([1]; A549-ACE2): 8.1 ± 0.2 µM
CC50 (in vitro [2]): > 50 µM
CC50 (in vitro [3]): > 50 µM

Cc1ccc(-c2ccc(/C=c3/sc4nc5ccccc5n4c3=O)o2)cc1Cl [NBCoV79]
IC50 ([1]; 293T/ACE2): > 10 µM
IC50 ([1]; A549-ACE2): > 10 µM
CC50 (in vitro [2]): > 50 µM
CC50 (in vitro [3]): > 50 µM

COc1cc(/C=c2/sc3nc4ccccc4n3c2=O)ccc1OCc1nnn[nH]1 [NBCoV80]
IC50 ([1]; 293T/ACE2): > 10 µM
IC50 ([1]; A549-ACE2): > 10 µM
CC50 (in vitro [2]): > 50 µM
CC50 (in vitro [3]): > 50 µM

Cc1cc2nc3s/c(=C/c4ccc(-c5ccccc5C(=O)O)o4)c(=O)n3c2cc1C [NBCoV81]
IC50 ([1]; 293T/ACE2): 0.387 ± 0.064 µM
IC50 ([1]; A549-ACE2): 0.459 ± 0.023 µM
CC50 (in vitro [2]): > 50 µM
CC50 (in vitro [3]): > 50 µM

Cc1cc2nc3s/c(=C\c4ccc(-c5ccc(OC(F)(F)F)cc5)o4)c(=O)n3c2cc1C [NBCoV82]
IC50 ([1]; 293T/ACE2): > 10 µM
IC50 ([1]; A549-ACE2): > 10 µM
CC50 (in vitro [2]): > 50 µM
CC50 (in vitro [3]): > 50 µM

CCC(CC)COC(=O)[C@H](C)N[P@](=O)(OC[C@H]1O[C@@](C#N)(c2ccc3c(N)ncnn23)[C@H](O)[C@@H]1O)Oc1ccccc1 [Remdesivir, reference compound]
IC50 (SARS-CoV-1 Urbani): 1.08 µM
CC50 (in vitro [4]): > 50 µM
IC50 (MERS-CoV, EMC/2012): 17.8 µM
